For this assay, the target named is T1, Alkaline phosphatase, tissue-nonspecific isozyme (Homo sapiens, UniProt P05186).
T1 sequence (P05186 whole entry): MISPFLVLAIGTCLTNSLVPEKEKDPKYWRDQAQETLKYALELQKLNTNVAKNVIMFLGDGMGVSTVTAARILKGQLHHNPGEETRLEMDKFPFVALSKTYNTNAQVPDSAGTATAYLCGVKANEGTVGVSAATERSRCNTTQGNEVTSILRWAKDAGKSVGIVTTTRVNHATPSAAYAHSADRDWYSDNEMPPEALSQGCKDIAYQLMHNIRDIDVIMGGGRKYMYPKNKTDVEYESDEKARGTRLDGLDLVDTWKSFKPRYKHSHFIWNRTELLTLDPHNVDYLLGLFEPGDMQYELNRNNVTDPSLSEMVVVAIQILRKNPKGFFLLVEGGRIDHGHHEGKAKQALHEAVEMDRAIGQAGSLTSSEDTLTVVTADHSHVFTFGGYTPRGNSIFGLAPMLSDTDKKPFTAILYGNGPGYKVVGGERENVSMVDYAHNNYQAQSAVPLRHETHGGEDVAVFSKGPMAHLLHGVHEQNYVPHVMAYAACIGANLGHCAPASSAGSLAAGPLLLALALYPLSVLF
The assay is described as follows: TNAP enzyme activators, dose response, selectivity assay for human IAP activator project, biochemical, TNAP isozyme, human IAP uHTS hits (AID 488886).

SMILES strings stand for the structures. pEC50: −log10 of the molar value.

This note sets out measurements from BindingDB's records for doi:10.7270/Q24Q7SF3 (Burnham Center For Chemical Genomics, 2010).

`Cn1c(C(C#N)C(=O)c2ccc(Br)s2)nc2ccccc21` (stereo not drawn) [MLS001167394] gave a negative-log EC50 (pEC50) of 4.35.

`CCc1ccc(CN=Nc2ncnc3nc[nH]c23)cc1` [MLS000419199] showed a pEC50 of 4.75.

Take `Cc1cc(Br)ccc1SCC(=O)OCC(=O)C(C#N)c1nc2ccccc2[nH]1` (stereo not drawn) [2-[(4-bromo-2-methylphenyl)thio]acetic acid [3-cyano-3-(1,3-dihydrobenzimidazol-2-ylidene)-2-oxopropyl] ester]: the pEC50 was 4.62.

On to `O=Nc1[nH]c(=O)c(CC(=O)c2ccccc2)nc1NO` [SMR000539633], for which the negative-log EC50 (pEC50) was < 4.00.

For `CCOC(=O)c1c(C)[nH]c(C(=O)N/N=C/C2C=C([N+](=O)[O-])C=CC2=O)c1C` (stereo not drawn) [ethyl 2,4-dimethyl-5-[[[(E)-(3-nitro-6-oxocyclohexa-2,4-dien-1-ylidene)methyl]amino]carbamoyl]-1H-pyrrole-3-carboxylate], the negative-log EC50 (pEC50) was 4.65.

In turn, `C=c1[nH]n(-c2nc3ccccc3[nH]2)c(=O)c1=CN(C)C` [(4E)-2-(1H-benzimidazol-2-yl)-4-(dimethylaminomethylidene)-5-methyl-pyrazol-3-one] gave a negative-log EC50 (pEC50) of 4.94.

`O=c1c2ccccc2nc(N=NCc2c(O)ccc3ccccc23)n1O` [SMR000145705]: the pEC50 is < 4.00.

In turn, `COc1cccc(C=NNC(=O)c2[nH][nH]c(=O)c2C)c1O` [N'-[(E)-(5-methoxy-6-oxidanylidene-cyclohexa-2,4-dien-1-ylidene)methyl]-4-methyl-5-oxidanylidene-1,4-dihydropyrazole-3-carbohydrazide] gave a pEC50 of 5.05.
